# Experimental data reported in US20060058376A1, “Composition having autonomic nerve modulating activity and method of use thereof” (SUNTORY LIMITED, priority 2003, published 2006).
# Assays:
# Assay type in all cases: in vivo, human
# [1] = system: activity of autonomic nerves; experiment: Heart rate variability power spectrum after smoking, double blind crossover study; conditions: for level of LF/HF change: 3 soft capsules each containing 10 mg of sesamin, nine male university students
# Procedure: For nine male general university students, a test was carried out by a double blind, crossover study. Specifically, 3 soft capsules each containing 10 mg of sesamin and 3 placebo capsules were ingested, and the effect of the ingestion of the capsules on the activity of autonomic nerves was examined by a heart rate variability power spectrum method according to the method by Ue, H. et al. (Ue, H. et al., Ann. Noninvasive Electrocardiol., 5: 336-345 (2000)). After the ingestion of each sample, the students smoked one cigarette over a period of 4 min. Just before and after smoking, 10 min after smoking, and 30 min after smoking, electrocardiograms were taken, and sampling was carried out at 1024 Hz using 14-bit A/D conversion. Heart rate variability obtained from the electrocardiograms were processed by fast Fourier transform for frequency analysis to provide a heart rate variability power spectrum. In order to separate and quantify the heart rate variability spectrum, spectral integral values of two frequency bands (0.04 to 0.15 Hz and 0.15 to 0.4 Hz) are mainly determined. The spectral integral value of the low frequency (0.04 to 0.15 Hz) band was used as a measure of the activity of the sympathetic nerves and the activity of the parasympathetic nerves, while the spectral integral value of the high frequency (0.15 to 0.4 Hz) band was used as a measure of the activity of the parasympathetic nerves. Further, the value obtained by dividing the spectral integral value of the low frequency band by the spectral integral value of the high frequency band, that is, LF/HF, was used as a measure of the balance between the activity of the sympathetic nerves and the activity of the parasympathetic nerves (Akselrod S et al., Science 213: 220-222 (1981) and Moritani T et al., J sportmed Sci. 7: 31-39 (1993)). Further, the heart depolarization-repolarizaton time was measured by the QT interval.
# [2] = system: activity of autonomic nerves; experiment: Heart rate variability power spectral analysis in women with symptoms of climacteric disorder, double-blind parallel comparison; conditions: 4 weeks, 3 soft capsules each containing 10 mg of sesamin; supine position; FIG. 3
# Procedure: For 14 women who display symptoms of climacteric disorder, a test was carried out by double-blind parallel between-groups comparison. The subjects were randomly divided into two groups. Over a period of 4 weeks, 3 soft capsules each containing 10 mg of sesamin were ingested consecutively for one of the groups, and 3 placebo capsules were ingested consecutively for the other group. Before and after the ingestion of the sample, electrocardiograms were taken in a supine position, and the activity of the autonomic nerves was examined by heart rate variability power spectral analysis.
# QT interval = QT interval (heart depolarization-repolarization time) after smoking; conditions: FIG. 2; 3 x 10 mg sesamin capsules; placebo group significant prolongation (p<0.01)
# Procedure: For nine male general university students, a test was carried out by a double blind, crossover study. Specifically, 3 soft capsules each containing 10 mg of sesamin and 3 placebo capsules were ingested, and the effect of the ingestion of the capsules on the activity of autonomic nerves was examined by a heart rate variability power spectrum method according to the method by Ue, H. et al. (Ue, H. et al., Ann. Noninvasive Electrocardiol., 5: 336-345 (2000)). After the ingestion of each sample, the students smoked one cigarette over a period of 4 min. Just before and after smoking, 10 min after smoking, and 30 min after smoking, electrocardiograms were taken, and sampling was carried out at 1024 Hz using 14-bit A/D conversion. Heart rate variability obtained from the electrocardiograms were processed by fast Fourier transform for frequency analysis to provide a heart rate variability power spectrum. In order to separate and quantify the heart rate variability spectrum, spectral integral values of two frequency bands (0.04 to 0.15 Hz and 0.15 to 0.4 Hz) are mainly determined. […] Further, the heart depolarization-repolarizaton time was measured by the QT interval.
smiles,measurement,setting,value
c1cc2c(cc1[C@H]1OC[C@H]3[C@@H]1CO[C@@H]3c1ccc3c(c1)OCO3)OCO2 [sesamin],level of LF/HF change,[1]; 30 min after smoking,−0.239
same,level of LF/HF change,[1]; just after smoking,+2.87
same,lowering in the activity of the parasympathetic nerves caused by smoking,"[1]; vs placebo, p<0.05, FIG. 1, 3 x 10 mg sesamin capsules",significantly inhibited
same,overall autonomic nerve activity,[2],increased
same,parasympathetic nerve activity,[2],significantly increased
same,sympathetic nerve activity,[2],increased
same,prolongation of QT interval caused by smoking,QT interval,no significant prolongation
